Where two headings read alike, the source gives them in different places.
Assays:
[1] = MicroPET/CT imaging and biodistribution, HepG2 tumor model; type: in vivo, nude mice; conditions: both sexes, BALB/c nude, mouse, iv, 5.55 MBq, total radioactivity; for tissue to tissue ratio at 1 h / tissue to tissue ratio at 0.5 h / tissue to tissue ratio at 2 h: HepG2 (GPC3+) tumor bearing mice; for tissue to tissue ratio at 1 h / tissue uptake at 1 h: 60 min; for tissue to tissue ratio at 0.5 h / tissue uptake at 0.5 h: 30 min; for tissue to tissue ratio at 2 h / tissue uptake at 2 h: 120 min; for tissue uptake at 0.5 h / tissue uptake at 1 h / tissue uptake at 2 h: HepG2 (GPC3+) tumor model, PET
Description: (§1) MicroPET/CT Imaging and Biodistribution. MicroPET/CT scans were carried out using a Siemens Inveon PET/CT scanner (Siemens, Germany). Tumor-bearing mice (n=3/group) were intravenously injected with 5.55 MBq of Al[^18F]F-GP2076 or Al[^18F]F-GP2633 under isoflurane anesthesia. A ten-minute static PET scan for each animal was acquired at 30, 60, and 120 min after the injection. 3-Dimensional ordered subset expectation maximization (3D-OSEM) algorithm was used for the PET reconstruction, and CT was applied for attenuation correction. Detailed procedures for the microPET/CT imaging and biodistribution are provided in ESM.
(§2) All animal experiments were conducted according to the guideline of the Nanfang Hospital Animal Ethics Committee at the Southern Medical University. Male or female BALB/c nude mice (about 4-6 weeks old) were obtained from the Laboratory Animal Center at Southern Medical University. The HepG2 and McA-RH7777 HCC xenografts were established by subcutaneous injection of 1×10^6 tumor cells into the left shoulder of nude mice. The animals were used for in vivo studies when the tumors reached a size of 0.5-1 cm in diameter (4-6 weeks after inoculation).
(§3) Inveon Research Workplace (IRW) 3.0 software (Siemens, Germany) was used to measure the regions of interest (ROIs) determined by superimposing the ellipsoid volume of interest (VOI) on the target tissues. The radioactivity concentrations were measured by the mean pixel intensity within each VOI and converted to dose/ml using a calibration constant. Assuming the tissue density of 1 g/ml, the ROI was then converted to dose per gram and normalized as the percent injected dose per gram (% ID/g). Tumor-to-nontarget uptake ratios, including tumor-to-muscle (T/M), tumor-to-liver (T/L), and tumor-to-kidneys (T/K) ratios, were calculated by dividing the radioactivity uptake in tumor by that in the corresponding normal tissue or organ.

[2] = test system: GPC3-positive HepG2 tumor; assay: as above; type: in vivo, nude mice; conditions: for Tumor-to-kidneys (T/K) uptake ratio / Tumor-to-liver (T/L) uptake ratio / Tumor-to-muscle (T/M) uptake ratio: HepG2 (GPC3+) tumor bearing mice; for Kidneys uptake / Liver uptake / Tumor uptake: HepG2 (GPC3+) tumor model; for Tumor uptake: decay-corrected
Description: as §1, §2, §3

[3] = Ex vivo biodistribution in HepG2 tumor bearing nude mice; conditions: both sexes, BALB/c nude, mouse, iv, 1.85 MBq, total radioactivity, 1 h post-injection, gamma counting
Description: as §2
(§4) Ex vivo biodistribution was evaluated at 60 min after the tail vein injection of 1.85 MBq of Al[^18F]F-GP2076 or Al[^18F]F-GP2633. Mice were euthanized and dissected. Major tissues and organs were collected and weighed wet. The radioactivity in the tissues and organs was measured using a gamma counter. The results were presented as % ID/g. For each animal, the radioactivity of the tissue and organ samples was calibrated with a known aliquot of the injected activity. Mean uptake (% ID/g) for a group of animals was calculated with standard deviations.

[4] = test system: HepG2 tumor; assay: as above; conditions: 1 h post-injection, gamma counting
Description: as §2, §4

[5] = In vitro stability in PBS and mouse serum; type: in vitro ADME; conditions: PBS at room temperature and mouse serum at 37° C., 2 h incubation, HPLC
Description: In Vitro Stability. The stability of Al[^18F]F-GP2076 or Al[^18F]F-GP2633 was evaluated in PBS and mouse serum. Briefly, 5.55 MBq of Al[^18F]F-GP2076 or Al[^18F]F-GP2633 was incubated with 0.5 ml of PBS at room temperature or mouse serum at 37° C. with gentle shaking. The stability test was carried out at 2 h after the incubation. For the PBS study, an aliquot of the solution was taken, and the radiochemical purity was determined by analytical HPLC. For the mouse serum study, after the addition of TFA, the mixture was passed through a 0.2-μm filter. An aliquot of the soluble fraction was taken, and the radiochemical purity was examined by analytical HPLC.

[6] = HepG2 tumor / liver, read-out: Tumor-to-liver (T/L) uptake ratio
[7] = HepG2 tumor / muscle, read-out: Tumor-to-muscle (T/M) uptake ratio
[8] = intestine, read-out: Intestinal uptake
[9] = decay-corrected, read-out: Tumor uptake
[10] = kidneys, read-out: Kidneys uptake
[11] = muscle, read-out: Muscle uptake
[12] = tumor / kidneys, read-out: Tumor-to-kidneys (T/K) uptake ratio

tissue to tissue ratio at 1 h ([1]; HepG2 tumor / kidneys, read-out: Tumor-to-kidneys (T/K) uptake ratio): 0.09 ± 0.01
tissue to tissue ratio at 0.5 h [1, 6]: 1.77 ± 0.2
tissue to tissue ratio at 1 h [1, 6]: 2 ± 0.18
tissue to tissue ratio at 2 h [1, 6]: 1.28 ± 0.25
tissue to tissue ratio at 0.5 h [1, 7]: 9.11 ± 0.79
tissue to tissue ratio at 1 h [1, 7]: 12.2 ± 0.62
tissue to tissue ratio at 2 h [1, 7]: 6.2 ± 1.8
tissue uptake at 0.5 h ([1]; bone, read-out: Bone uptake): 0.47 %ID/g
tissue uptake at 1 h ([1]; bone, read-out: Bone uptake): 0.43 %ID/g
tissue uptake at 2 h ([1]; bone, read-out: Bone uptake): 0.55 %ID/g
tissue uptake at 0.5 h ([1]; brain, read-out: Brain uptake): 0.1 %ID/g
tissue uptake at 1 h ([1]; brain, read-out: Brain uptake): 0.11 %ID/g
tissue uptake at 2 h ([1]; brain, read-out: Brain uptake): 0.22 %ID/g
tissue uptake at 0.5 h ([1]; heart, read-out: Heart uptake): 1.04 %ID/g
tissue uptake at 1 h ([1]; heart, read-out: Heart uptake): 0.91 %ID/g
tissue uptake at 2 h ([1]; heart, read-out: Heart uptake): 0.37 %ID/g
tissue uptake at 0.5 h [1, 8]: 1.09 %ID/g
tissue uptake at 1 h [1, 8]: 1.3 %ID/g
tissue uptake at 2 h [1, 8]: 0.46 %ID/g
tissue uptake at 0.5 h [1, 9]: 3.13 %ID/g
tissue uptake at 1 h [1, 9]: 3.37 %ID/g
tissue uptake at 2 h [1, 9]: 1.3 %ID/g
tissue uptake at 0.5 h [1, 10]: 39.4 %ID/g
tissue uptake at 1 h [1, 10]: 36.9 %ID/g
tissue uptake at 2 h [1, 10]: 29.3 %ID/g
tissue uptake at 0.5 h ([1]; liver, read-out: Liver uptake): 1.8 %ID/g
tissue uptake at 1 h ([1]; liver, read-out: Liver uptake): 1.7 %ID/g
tissue uptake at 2 h ([1]; liver, read-out: Liver uptake): 1.04 %ID/g
tissue uptake at 0.5 h ([1]; lung, read-out: Lung uptake): 0.69 %ID/g
tissue uptake at 1 h ([1]; lung, read-out: Lung uptake): 0.59 %ID/g
tissue uptake at 2 h ([1]; lung, read-out: Lung uptake): 0.34 %ID/g
tissue uptake at 0.5 h [1, 11]: 0.35 %ID/g
tissue uptake at 1 h [1, 11]: 0.28 %ID/g
tissue uptake at 2 h [1, 11]: 0.22 %ID/g
tissue to tissue ratio at 0.5 h [1, 12]: 0.08 ± 0.01
tissue to tissue ratio at 2 h [1, 12]: 0.04 ± 0.01
Tumor-to-kidneys (T/K) uptake ratio ([2]; 30 min): 0.08 ± 0.01
Tumor-to-liver (T/L) uptake ratio ([2]; 30 min): 1.77 ±0.20
Tumor-to-muscle (T/M) uptake ratio ([2]; 30 min): 9.11±0.79
Tumor-to-kidneys (T/K) uptake ratio ([2]; 60 min): 0.09±0.01
Tumor-to-liver (T/L) uptake ratio ([2]; 60 min): 2.00±0.18
Tumor-to-muscle (T/M) uptake ratio ([2]; 60 min): 12.17±0.62
Tumor-to-kidneys (T/K) uptake ratio ([2]; 120 min): 0.04 ± 0.01
Tumor-to-liver (T/L) uptake ratio ([2]; 120 min): 1.28±0.25
Tumor-to-muscle (T/M) uptake ratio ([2]; 120 min): 6.20±1.80
Kidneys uptake ([2]; 30 min, PET): 39.40±0.98 % ID/g
Liver uptake ([2]; 30 min, PET): 1.80±0.36 % ID/g
Tumor uptake ([2]; 30 min, PET): 3.13±0.31 % ID/g
Kidneys uptake ([2]; 60 min, PET): 36.86±2.05 % ID/g
Liver uptake ([2]; 60 min, PET): 1.70±0.26 % ID/g
Tumor uptake ([2]; 60 min, PET): 3.37±0.35 % ID/g
Kidneys uptake ([2]; 120 min, PET): 29.27 ± 3.31 % ID/g
Liver uptake ([2]; 120 min, PET): 1.04 ± 0.20 % ID/g
Tumor uptake ([2]; 120 min, PET): 1.30±0.17 % ID/g
defluorination in vivo (from low bone uptake) ([2]; PET, bone uptake): did not occur
clearance / excretion route from the mouse body ([2]; as visualized by PET images): predominantly through the renal system
tissue uptake at 1 h ([3]; HepG2 tumor, read-out: HepG2 Tumor uptake, ex vivo biodistribution): 1.96 ± 0.29 %ID/g
tissue uptake at 1 h ([3]; blood, read-out: Blood uptake, ex vivo biodistribution): 0.45 ± 0.12 %ID/g
tissue uptake at 1 h ([3]; bone, read-out: Bone uptake, ex vivo biodistribution): 0.36 ± 0.08 %ID/g
tissue uptake at 1 h ([3]; brain, read-out: Brain uptake, ex vivo biodistribution): 0.12 ± 0.12 %ID/g
tissue uptake at 1 h ([3]; heart, read-out: Heart uptake, ex vivo biodistribution): 0.39 ± 0.27 %ID/g
tissue uptake at 1 h ([3]; kidneys, read-out: Kidneys uptake, ex vivo biodistribution): 37 ± 4.7 %ID/g
tissue uptake at 1 h ([3]; liver, read-out: Liver uptake, ex vivo biodistribution): 0.97 ± 0.07 %ID/g
tissue uptake at 1 h ([3]; muscle, read-out: Muscle uptake, ex vivo biodistribution): 0.31 ± 0.05 %ID/g
HepG2 Tumor uptake, ex vivo biodistribution [4]: 1.96±0.29 % ID/g
Liver uptake, ex vivo biodistribution [4]: 0.97±0.07 % ID/g
percentage of intact radiotracer (in vitro stability) [5]: > 98%
SMILES: CC(C)C[C@H](NC(=O)[C@H](CCCNC(=N)N)NC(=O)[C@H](CC(N)=O)NC(=O)[C@H](CC(=O)O)NC(=O)[C@H](CCCNC(=N)N)NC(=O)CNC(=O)CNC(=O)CNC(=S)Nc1ccc(CC2CN(CC(=O)O)CCN(CC(=O)O)CCN2CC(=O)O)cc1)C(=O)N[C@@H](CC(N)=O)C(=O)N[C@H](C(=O)NCC(=O)NCC(=O)N[C@H](C(=O)N[C@@H](Cc1ccc(O)cc1)C(=O)N[C@@H](Cc1ccccc1)C(=O)N[C@@H](CC(C)C)C(=O)N[C@H](C(=O)N[C@H](C(=O)N[C@@H](CCCNC(=N)N)C(=O)N[C@@H](CCC(N)=O)C(=O)O)[C@@H](C)O)[C@@H](C)O)[C@@H](C)O)C(C)C (single isomer, unassigned) [Al[^18F]F-GP2633]

Reference: patent publication US20210347709A1, “RADIOFLUORINATED GPC3-BINDING PEPTIDES FOR PET IMAGING OF HEPATOCELLULAR CARCINOMA” (University of Southern California, priority 2020, published 2021)
